Test systems include DMS-114; DMS-273; HOP-18; KM-20L2; LXFL 529; M19-MEL; XF498; DLD-1; RXF 631.
What all share (assay): inhibition of tumour cell growth, NCI panel, 48 h

The values that follow come from ChEMBL document CHEMBL1201862, “PubChem BioAssay data set” (2004).

SMILES strings stand for the structures.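 Each compound was tested at five concentrations against cells in 96-well plates for 48 hours. GI50 is the concentration that inhibits growth by half.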 Calls of active or inactive are those of the source. Rule as the data show it: active = GI50 up to about 1.1 µM and inactive = higher. Bounds are passed on as bounds.

Take `O[C@]12c3ccccc3C1CCCC2N1CCOCC1` (some centres undefined): the GI50 in the test with DMS-114, in the test on DMS-273, in the test with HOP-18, in the test on KM-20L2, in the test on LXFL 529 and in the test on M19-MEL was > 100 µM (inactive) in each case. Moreover, the GI50 in the test with XF498 is > 100 µM (inactive).

Regarding `Cc1cc2oc(=O)[nH]c(=S)c2c(C)c1C`, the GI50 with DMS-114, with DMS-273, with HOP-18, with KM-20L2, in the test on LXFL 529 and in the test on M19-MEL was > 100 µM (inactive) in each case. Also, the GI50 with XF498 is > 100 µM (inactive).

Consider `NS(=O)(=O)c1ccc(Nc2c3ccccc3nc3c(C(=O)N4CCN(CCO)CC4)cccc23)cc1`, for which the GI50 with DMS-114 was 75.5 µM (inactive); in the test with DMS-273 it was 82.6 µM (inactive); with HOP-18, > 100 µM (inactive); in the test on KM-20L2 it was > 100 µM (inactive); in the test on LXFL 529, 60.3 µM (inactive); in the test with M19-MEL, > 100 µM (inactive). Further, in the test with XF498, the GI50 is > 100 µM (inactive).

As for `C=C(C)C1Cc2c(cc(OC)c3c(=O)c4ccccc4n(C)c23)O1` (centres undefined), the GI50 was > 100 µM (inactive) in the test on DLD-1; 91.8 µM (inactive) with DMS-114; 91.6 µM (inactive) in the test on DMS-273; > 100 µM (inactive) in the test with HOP-18; > 100 µM (inactive) with KM-20L2; > 100 µM (inactive) in the test on LXFL 529. Moreover, the GI50 with M19-MEL was 63.7 µM (inactive); with XF498 it was > 100 µM (inactive).

As for `C=C1C(=O)OC2/C=C(\C)C3OC3/C=C(/C(=O)OC)C(OC(C)=O)C(OC(=O)C(C)(O)C(C)OC(C)=O)C12` (centres undefined), the GI50 in the test with DLD-1 was 2.39 µM (inactive); with DMS-114, 1.15 µM (inactive); in the test on DMS-273 it was 1.57 µM (inactive); with LXFL 529, 1.1 µM (active); in the test on M19-MEL it was 2.39 µM (inactive); in the test with RXF 631 it was 2.55 µM (inactive). In the test with XF498, the GI50 was 1.96 µM (inactive).

In the case of `Cc1ccc(S(=O)(=O)NC(=O)NC23CC4CC(CC(F)(C4)C2)C3)cc1`, the GI50 with DLD-1, with DMS-114, in the test on DMS-273, in the test on KM-20L2, in the test on LXFL 529 and in the test on M19-MEL was > 100 µM (inactive) in each case. Also, the GI50 with XF498 was > 100 µM (inactive).

Turning to `O=C(/C=C/c1ccc(O)cc1)c1ccc(O)cc1` [4,4'-DIHYDROXYCHALCONE], the GI50 with DLD-1 was 18 µM (inactive); with DMS-114, 18.9 µM (inactive); with DMS-273 it was 16.5 µM (inactive); in the test with HOP-18, 35.2 µM (inactive); in the test with KM-20L2 it was 20.3 µM (inactive); with M19-MEL, 21.7 µM (inactive). Moreover, the GI50 in the test with XF498 was 19.3 µM (inactive).

As to `O=C1[C@H]2ON(c3ccccc3)C(c3ccc(Cl)cc3Cl)[C@H]2C(=O)N1c1ccc(Cc2ccc(N3C(=O)[C@@H]4ON(c5ccccc5)C(c5ccc(Cl)cc5Cl)[C@@H]4C3=O)cc2)cc1` (some centres undefined), the GI50 in the test on DLD-1, in the test on DMS-114, in the test on DMS-273, in the test with HOP-18, in the test on KM-20L2 and in the test on LXFL 529 was > 100 µM (inactive) each time. In addition, the GI50 in the test on M19-MEL is > 100 µM (inactive).

In the case of `COc1cc(CC2c3cc(OC)c(OC)cc3CCN2C)ccc1O` (centres undefined), the GI50 in the test with DLD-1, in the test with HOP-18, in the test on KM-20L2, with LXFL 529 and in the test with XF498 was > 100 µM (inactive) throughout.

On to `CN(CCc1ccccn1)/[N+]([O-])=N/O.CNCCc1ccccn1`, for which the GI50 in the test with DLD-1, in the test with DMS-114, in the test on DMS-273, in the test on HOP-18, with KM-20L2 and with LXFL 529 was > 100 µM (inactive) throughout. The GI50 in the test with M19-MEL and in the test on RXF 631 was > 100 µM (inactive) throughout.

For `CSc1n[n+]2c(s1)SCCC2`, the GI50 with DLD-1 is > 100 µM (inactive); with DMS-114 it was 62.5 µM (inactive); with DMS-273 it was > 100 µM (inactive); with HOP-18, 42.7 µM (inactive); with LXFL 529 it was > 100 µM (inactive); with M19-MEL, > 100 µM (inactive). Moreover, the GI50 in the test on RXF 631 and in the test with XF498 was > 100 µM (inactive) each time.

Consider `COc1cccc2c1C1(O)C2CCCCCCCCCC12OCCCO2` (centres undefined), for which the GI50 in the test on DLD-1 is 6.64 µM (inactive); in the test on DMS-114 it was > 100 µM (inactive); in the test with DMS-273, > 100 µM (inactive); in the test on HOP-18, > 100 µM (inactive); in the test on KM-20L2, > 100 µM (inactive); in the test on LXFL 529, 45.6 µM (inactive).

Turning to `CC(=O)COC(=O)CC(C)=O`, the GI50 in the test with DLD-1, in the test with DMS-114, in the test on DMS-273, in the test on KM-20L2, in the test with LXFL 529 and in the test with M19-MEL was > 100 µM (inactive) in each case. Moreover, the GI50 in the test on RXF 631 and in the test on XF498 was > 100 µM (inactive) throughout.

For the compound `CCCCCCCCCCSC(=O)NC`, the GI50 in the test on DLD-1 is 36.9 µM (inactive); with DMS-273 it was 29.2 µM (inactive); with HOP-18, 63 µM (inactive); in the test on KM-20L2 it was > 10 µM (inactive); in the test with LXFL 529, 49.4 µM (inactive); in the test with M19-MEL, 38.1 µM (inactive). In the test with XF498, the GI50 was 21.3 µM (inactive).

For the compound `O=C1CCCCC1S(=O)(=O)c1ccccc1` (centres undefined), the GI50 in the test on DLD-1, in the test with DMS-114, in the test on DMS-273, in the test on HOP-18, with KM-20L2 and in the test with LXFL 529 was > 100 µM (inactive) in each case. Moreover, the GI50 with M19-MEL and in the test on XF498 was > 100 µM (inactive) in each case.

For the compound `C/C(=N\N=C(N)N)c1sc(-c2nc(C)c(/C(C)=N/N=C(N)N)s2)nc1C`, the GI50 in the test with DLD-1 was > 51.2 µM (inactive); with DMS-273, > 100 µM (inactive); with HOP-18 it was > 100 µM (inactive); with KM-20L2, > 100 µM (inactive); with LXFL 529 it was > 88.3 µM (inactive); with M19-MEL, > 100 µM (inactive). In the test with XF498, the GI50 is > 100 µM (inactive).

As for `COC(=O)C(C(=O)C(=O)Nc1ccc(OC)cc1[N+](=O)[O-])c1nc2cc(C)c(C)cc2nc1O` (centres undefined), the GI50 in the test on DLD-1, with DMS-114, in the test with HOP-18, in the test on KM-20L2, in the test on LXFL 529 and in the test with M19-MEL was > 100 µM (inactive) throughout. For the same compound, in the test on RXF 631, the GI50 is > 100 µM (inactive).

Regarding `CCCCCCCCCCCCCCCCOCC(CN(C)CCN(C)C)OCCCCCCCCCCCCCCCC` (centres undefined), the GI50 with DLD-1, in the test with DMS-114, with DMS-273, in the test with HOP-18, in the test with KM-20L2 and in the test with LXFL 529 was > 100 µM (inactive) throughout. The GI50 in the test with M19-MEL and in the test on RXF 631 was > 100 µM (inactive) in each case.
